Assay results taken from the supplement of paper PMC5908809.

Legend:
SNK-6 (IL-2 2.5 ng/mL) [1] = assay: percent inhibition of viability; higher = more inhibition; conditions: 72 h
KHYG-1 (IL-2 2.5 ng/mL) [2] = assay: as above; conditions: 72 h
[3] = tested on: normal primary NK cells, pool 3 (3 donors) (IL-2 2.5 ng/mL); assay: as above; conditions: 72 h
IMC-1 (IL-2 20 ng/mL) [4] = assay: as above; conditions: 72 h
NK-92 (IL-2 2.5 ng/mL) [5] = assay: as above; conditions: 72 h
[6] = tested on: normal primary NK cells, pool 1 (3 donors) (IL-2 2.5 ng/mL); assay: as above; conditions: 72 h
NKL (IL-2 2.5 ng/mL) [7] = assay: as above; conditions: 72 h
[8] = tested on: normal primary NK cells, pool 1 (3 donors), resting (IL-2 0 ng/mL); assay: as above; conditions: 72 h
KAI3 (IL-2 2.5 ng/mL) [9] = assay: as above; conditions: 72 h
NK-YS (IL-2 2.5 ng/mL) [10] = assay: as above; conditions: 72 h
DERL-7 (IL-2 2.5 ng/mL) [11] = assay: as above; conditions: 72 h
[12] = tested on: normal primary NK cells, pool 2 (3 donors) (IL-2 2.5 ng/mL); assay: as above; conditions: 72 h
YT (IL-2 2.5 ng/mL) [13] = assay: as above; conditions: 72 h
[14] = tested on: normal NK cells expanded with K562-aAPC; assay: as above; conditions: 72 h, IL-2 2.5 ng/mL
Method: (§1)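 Drug sensitivity and resistance testing on K562-aAPC-expanded normal NK cells: 5 concentrations (10-fold steps over a 10,000-fold range), 72 h at 37 °C, viability by CellTiter-Glo normalised to DMSO and benzethonium chloride controls; DSS from the fitted curve.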

[15] = tested on: normal NK cells expanded with K562-aAPC; assay: drug sensitivity score (DSS) (DSS units); higher = more sensitive; extreme values may be limits of the assay; conditions: 72 h; IL-2 2.5 ng/mL
Method: as §1

SNK-6 (IL-2 2.5 ng/mL) [16] = assay: as above; conditions: 72 h
KHYG-1 (IL-2 2.5 ng/mL) [17] = assay: as above; conditions: 72 h
[18] = tested on: normal primary NK cells, pool 3 (3 donors) (IL-2 2.5 ng/mL); assay: as above; conditions: 72 h
IMC-1 (IL-2 20 ng/mL) [19] = assay: as above; conditions: 72 h
NK-92 (IL-2 2.5 ng/mL) [20] = assay: as above; conditions: 72 h
[21] = tested on: normal primary NK cells, pool 1 (3 donors) (IL-2 2.5 ng/mL); assay: as above; conditions: 72 h
NKL (IL-2 2.5 ng/mL) [22] = assay: as above; conditions: 72 h
[23] = tested on: normal primary NK cells, pool 1 (3 donors), resting (IL-2 0 ng/mL); assay: as above; conditions: 72 h
KAI3 (IL-2 2.5 ng/mL) [24] = assay: as above; conditions: 72 h
NK-YS (IL-2 2.5 ng/mL) [25] = assay: as above; conditions: 72 h
DERL-7 (IL-2 2.5 ng/mL) [26] = assay: as above; conditions: 72 h
[27] = tested on: normal primary NK cells, pool 2 (3 donors) (IL-2 2.5 ng/mL); assay: as above; conditions: 72 h
YT (IL-2 2.5 ng/mL) [28] = assay: as above; conditions: 72 h

CCc1nc(-c2cccc(C)c2)c(-c2ccnc(NC(=O)c3ccccc3)c2)s1 [TAK-715] (max concentration tested 10000 nM)
percent inhibition of viability [%]
Conditions	1 nM	10 nM	100 nM	1000 nM	10000 nM
DERL-7 (IL-2 2.5 ng/mL) [11]	-3.04	0.75	-2.18	-4.76	8.69
IMC-1 (IL-2 20 ng/mL) [4]	-6.3	1.07	-0.32	8.04	35.2
KAI3 (IL-2 2.5 ng/mL) [9]	-4.52	11.6	8.66	14	47
KHYG-1 (IL-2 2.5 ng/mL) [2]	-3.44	6.66	1.56	3.92	42.6
NK-92 (IL-2 2.5 ng/mL) [5]	-3.47	-2.91	1.84	9.91	81.8
NK-YS (IL-2 2.5 ng/mL) [10]	-4.18	3.4	5.2	13.3	54.6
NKL (IL-2 2.5 ng/mL) [7]	-0.29	6.95	13.8	30.5	43.6
SNK-6 (IL-2 2.5 ng/mL) [1]	-15.1	-7.56	-2.44	-0.98	67
YT (IL-2 2.5 ng/mL) [13]	-1.34	5.71	0.2	5.66	48.7
[3]	-8.64	-2.23	3.1	-8.31	13.7
[6]	-3.9	-10.5	-3.55	-13.9	13.3
[8]	2.15	0.59	-2.35	-18.5	45.6
[12]	-3.82	0.59	1.26	-4.23	23.5
[14]	-6.95	-2.48	-3.15	7.93	1.86

Conditions	drug sensitivity score
DERL-7 (IL-2 2.5 ng/mL) [26]	0
IMC-1 (IL-2 20 ng/mL) [19]	2.93
KAI3 (IL-2 2.5 ng/mL) [24]	3.97
KHYG-1 (IL-2 2.5 ng/mL) [17]	2.79
NK-92 (IL-2 2.5 ng/mL) [20]	6.19
NK-YS (IL-2 2.5 ng/mL) [25]	5.02
NKL (IL-2 2.5 ng/mL) [22]	6.94
SNK-6 (IL-2 2.5 ng/mL) [16]	3.59
YT (IL-2 2.5 ng/mL) [28]	3.5
[15]	0
[18]	0.05
[21]	0.02
[23]	1.63
[27]	0.63

Cn1c(=O)c(F)c(Nc2ccc(I)cc2F)c2c(=O)n(C[C@@H](O)CO)cnc21 [TAK-733] (max concentration tested 1000 nM)
percent inhibition of viability [%]
Conditions	0.1 nM	1 nM	10 nM	100 nM	1000 nM
DERL-7 (IL-2 2.5 ng/mL) [11]	3.05	13.4	23	41.5	47.2
IMC-1 (IL-2 20 ng/mL) [4]	-1.32	1.37	0.58	3.83	18.9
KAI3 (IL-2 2.5 ng/mL) [9]	2.03	4.38	17.2	23.1	29.4
KHYG-1 (IL-2 2.5 ng/mL) [2]	4.66	9.31	20.6	48.8	64.9
NK-92 (IL-2 2.5 ng/mL) [5]	3	0.98	-25.3	-5.54	19.1
NK-YS (IL-2 2.5 ng/mL) [10]	-2.42	2.48	3.61	10.7	25.6
NKL (IL-2 2.5 ng/mL) [7]	0.9	12	40.6	60.1	81.3
SNK-6 (IL-2 2.5 ng/mL) [1]	6	0.96	-6.2	3.19	-10.3
YT (IL-2 2.5 ng/mL) [13]	-3.29	0.91	1.73	6.99	14.3
[3]	-10.4	-14.4	-11.3	2.73	8.36
[6]	-3.53	3.59	5.44	11.3	7.77
[8]	-1.91	4.44	-3.15	-6.45	-3.7
[12]	-4.31	-4.06	11.2	17	13.8
[14]	-0.54	1.65	5.46	3.7	18.7

Conditions	drug sensitivity score
DERL-7 (IL-2 2.5 ng/mL) [26]	10.7
IMC-1 (IL-2 20 ng/mL) [19]	1
KAI3 (IL-2 2.5 ng/mL) [24]	5.51
KHYG-1 (IL-2 2.5 ng/mL) [17]	11.7
NK-92 (IL-2 2.5 ng/mL) [20]	0.33
NK-YS (IL-2 2.5 ng/mL) [25]	1.77
NKL (IL-2 2.5 ng/mL) [22]	17.2
SNK-6 (IL-2 2.5 ng/mL) [16]	0
YT (IL-2 2.5 ng/mL) [28]	0.35
[15]	0.89
[18]	0
[21]	0.17
[23]	0
[27]	2.88
